{
  "source": "patent US20160221974A1",
  "about": "“SODIUM CHANNEL MODULATORS FOR THE TREATMENT OF PAIN AND DIABETES” (CHROMOCELL CORPORATION, priority 2013, published 2016)",
  "key": {"hNaV1.7": {"target": "T1, hNaV1.7 (Homo sapiens, UniProt Q15858)", "T1 construct": "expressed in transfected cells", "T1 sequence (Q15858 whole entry)": "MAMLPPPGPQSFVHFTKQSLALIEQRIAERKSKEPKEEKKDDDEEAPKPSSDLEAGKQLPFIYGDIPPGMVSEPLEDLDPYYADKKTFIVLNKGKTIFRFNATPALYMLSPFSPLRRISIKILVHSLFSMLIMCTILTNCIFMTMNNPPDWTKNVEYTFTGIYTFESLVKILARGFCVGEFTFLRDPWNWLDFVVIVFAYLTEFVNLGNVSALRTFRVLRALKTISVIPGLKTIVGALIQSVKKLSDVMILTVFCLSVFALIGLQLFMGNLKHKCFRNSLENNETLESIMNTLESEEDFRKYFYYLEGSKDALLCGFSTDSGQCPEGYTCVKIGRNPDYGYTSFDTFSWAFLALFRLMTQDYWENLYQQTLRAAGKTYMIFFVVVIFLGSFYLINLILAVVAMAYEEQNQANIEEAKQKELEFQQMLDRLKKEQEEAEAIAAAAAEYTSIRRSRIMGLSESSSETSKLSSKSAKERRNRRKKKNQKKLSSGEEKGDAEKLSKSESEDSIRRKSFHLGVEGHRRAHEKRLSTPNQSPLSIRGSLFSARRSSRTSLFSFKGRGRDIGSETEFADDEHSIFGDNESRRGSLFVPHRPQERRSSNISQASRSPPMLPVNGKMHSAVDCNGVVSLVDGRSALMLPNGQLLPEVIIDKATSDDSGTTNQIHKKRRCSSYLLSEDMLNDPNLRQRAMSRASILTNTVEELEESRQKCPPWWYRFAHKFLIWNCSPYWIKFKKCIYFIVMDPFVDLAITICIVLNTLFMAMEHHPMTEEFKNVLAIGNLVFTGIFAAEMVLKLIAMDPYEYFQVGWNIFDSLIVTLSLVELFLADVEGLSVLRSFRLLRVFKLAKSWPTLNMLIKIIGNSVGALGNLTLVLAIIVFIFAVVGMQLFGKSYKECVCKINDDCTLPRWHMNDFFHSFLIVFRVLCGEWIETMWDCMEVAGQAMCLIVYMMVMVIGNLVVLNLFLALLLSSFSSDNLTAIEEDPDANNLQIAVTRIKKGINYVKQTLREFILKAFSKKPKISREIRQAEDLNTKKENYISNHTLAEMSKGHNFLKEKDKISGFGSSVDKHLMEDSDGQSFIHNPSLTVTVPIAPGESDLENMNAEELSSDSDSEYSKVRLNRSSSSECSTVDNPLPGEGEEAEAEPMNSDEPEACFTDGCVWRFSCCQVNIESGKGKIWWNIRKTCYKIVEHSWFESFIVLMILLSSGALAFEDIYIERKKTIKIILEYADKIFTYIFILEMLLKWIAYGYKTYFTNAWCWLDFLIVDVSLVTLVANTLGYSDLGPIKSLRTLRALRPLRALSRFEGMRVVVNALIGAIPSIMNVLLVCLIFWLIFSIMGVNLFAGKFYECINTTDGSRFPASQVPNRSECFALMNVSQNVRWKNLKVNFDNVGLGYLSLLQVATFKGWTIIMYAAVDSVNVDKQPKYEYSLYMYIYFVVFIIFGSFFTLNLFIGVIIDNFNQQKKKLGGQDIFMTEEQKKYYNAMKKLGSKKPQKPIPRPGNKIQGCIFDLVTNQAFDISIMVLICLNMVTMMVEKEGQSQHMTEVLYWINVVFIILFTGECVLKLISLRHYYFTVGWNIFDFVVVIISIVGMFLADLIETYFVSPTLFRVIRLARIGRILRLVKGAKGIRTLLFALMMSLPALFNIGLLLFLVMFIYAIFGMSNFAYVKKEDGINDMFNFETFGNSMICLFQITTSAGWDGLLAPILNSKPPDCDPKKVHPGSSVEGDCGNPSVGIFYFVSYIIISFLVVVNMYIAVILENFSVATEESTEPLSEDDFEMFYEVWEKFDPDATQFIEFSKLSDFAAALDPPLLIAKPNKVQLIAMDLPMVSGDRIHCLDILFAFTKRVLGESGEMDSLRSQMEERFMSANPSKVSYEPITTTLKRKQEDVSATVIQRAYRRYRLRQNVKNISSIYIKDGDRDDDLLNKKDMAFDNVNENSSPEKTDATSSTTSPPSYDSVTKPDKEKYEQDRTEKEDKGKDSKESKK", "T1 sequence (Q07699 19-218 partner)": "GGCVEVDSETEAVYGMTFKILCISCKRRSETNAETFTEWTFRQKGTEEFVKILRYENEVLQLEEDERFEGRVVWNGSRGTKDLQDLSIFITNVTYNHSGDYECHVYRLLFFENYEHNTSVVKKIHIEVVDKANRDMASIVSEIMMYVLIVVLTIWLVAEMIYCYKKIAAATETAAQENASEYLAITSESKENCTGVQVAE", "T1 sequence (O60939 30-215 partner)": "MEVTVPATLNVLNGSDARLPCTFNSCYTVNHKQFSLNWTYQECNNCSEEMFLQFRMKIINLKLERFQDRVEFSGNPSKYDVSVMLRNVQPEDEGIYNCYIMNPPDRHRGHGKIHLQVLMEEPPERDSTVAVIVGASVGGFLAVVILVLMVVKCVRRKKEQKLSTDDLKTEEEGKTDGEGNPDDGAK", "experiment": "FDSS Membrane Potential In-Vitro Assay", "format": "cell-based", "details": "stimulation with veratridine and scorpion venom, read-out: NaV1.7 IC50"}, "[1]": {"tested_on": "streptozotocin (STZ)-induced diabetic model", "experiment": "Streptozotocin (STZ)-Induced Model of Diabetic Neuropathy, behavioral tests", "format": "in vivo, male Sprague-Dawley rats", "details": "30 mg/kg, measured 30 minutes post dose", "description": "250-350 g male Sprague-Dawley rats from appropriate animal resources were used. Type I diabetes was induced by a single injection, (intraperitoneally, intravenously or intramuscularly) of 50-100 mg/kg of streptozotocin (STZ, Sigma Chemicals, St. Louis, Mo. or VWR) freshly dissolved in sodium citrate (0.01 M, pH 4.5). Sham animals were given either saline or same vehicle injection. Following a wait time of about two days, inducement of diabetes was confirmed in STZ-injected rats by measuring the plasma glucose concentrations in blood samples from the tail vein after a fast of 6 hours. […] Other parameters (water intake, food intake, and bodyweight) were monitored before the treatment with a test compound and after the cessation of the treatment.\nThe analgesic effect of the test compound was expressed as a percent recovery (% Recovery) relative to the sham control group baseline and calculated according to the formula: […]\nRats were placed on the glass surface of a thermal testing apparatus (Model 336, IITC/Life Science Instruments, Woodland Hills, Calif.) and were allowed to acclimate for 10 min before testing on the glass surface at room temperature. […] The paw withdrawal latency was recorded by a digital timer. The thermal threshold was determined as the mean withdrawal latency from two to three consecutive trials of both hindpaws. […]"}, "[2]": {"tested_on": "rat streptozotocin-induced model for diabetes", "experiment": "Evaluation of Anti-Diabetic Effect in In Vivo Model of Diabetes (chronic dosing, STZ rats)", "description": "250-350 g male Sprague-Dawley rats from appropriate animal resources were used. Type I diabetes was induced by a single injection, (intraperitoneally, intravenously or intramuscularly) of 50-100 mg/kg of streptozotocin (STZ, Sigma Chemicals, St. Louis, Mo. or VWR) freshly dissolved in sodium citrate (0.01 M, pH 4.5). Sham animals were given either saline or same vehicle injection. Following a wait time of about two days, inducement of diabetes was confirmed in STZ-injected rats by measuring the plasma glucose concentrations in blood samples from the tail vein after a fast of 6 hours. The glucose level was assayed using a mini glucose monitor (kit for AlphaTRAK 2 meter, available from Abbott Laboratories). Screening for hyperglycemia in STZ-injected animals was done, with only animals with a final blood glucose level ≧300 mg/dl being selected for the study. Glucose levels in the sham animals remained normal. Other parameters (water intake, food intake, and bodyweight) were monitored before the treatment with a test compound and after the cessation of the treatment.\nA Compound provided herein is tested in the rat STZ model of diabetes by chronic administration of the Compound for at least 7 days to evaluate analgesic and antidiabetic effects of the Compound. The analgesic effect of the Compound can be evaluated using behavioral tests (e.g., von Frey test, plantar test, and paw pressure test described herein below). The anti-diabetic effect of the Compound can be evaluated based on the improvement in the glucose level, food intake, water intake in the compound treated group compared to the untreated vehicle group and the normal, non-diabetic sham control group.\nDiabetes mellitus was induced in rats as described in paragraph [00327] above.\nThe baseline glucose levels, daily food and water intake and behavioral tests (von Frey, paw pressure and plantar tests) were measured for each animal once weekly for 28 weeks, and once every 2-4 weeks for an additional 28-30 weeks. At a selected week (started from week 6) for a compound test, diabetic rats were divided into two test groups: a vehicle control group and a test compound treated group (n=10 each group). A sham group (saline only without STZ i.p. injection, n=10) was added as a normal, non-diabetic control group. To minimize animal stress associated with repeated daily handling, the compound treated diabetic group of animals received the test compound at a daily dose of 60 mg/kg in their drinking water containing 2% PEG600 and 1% glycofurol (the test compound concentration in the drinking water was based on the individual animal's average daily water consumption as determined the pre-dosing period, which averaged 0.1-0.11 mg/ml). The vehicle control group received drinking water containing 2% PEG600 and 1% glycofurol without the test compound. The treatment continued for 9 days. On day 10 drinking water with test compound or vehicle (2% PEG600 and 1% glycofurol) was replaced with plain drinking water in all groups. The monitoring of glucose levels, food and water intake as well as behavior tests continued for additional 28-30 weeks. […] A gradual, significant reversal of up to 90% of mechanical allodynia (von Frey test) was achieved after 9 days of treatment.\nFIGS. 1-3 show food intake, glucose level, and water intake, respectively, for the vehicle control group, the test compound treated group (compound 49, 60 mg/kg/day), and the sham group. […] The significant reduction of food intake, glucose level, and water intake of the compound treated group compared to the vehicle control group continues through week 52. […] Since the standard deviation in the sham groups are less than 5%, no error bars are shown."}, "[3]": {"details": "diabetic rats, 60 mg/kg/day in drinking water for 9 days"}, "[4]": {"details": "measured on day 11, two days after compound withdrawal"}},
  "note": "Values joined by “and” are separate entries in the source; they are usually repeats but may differ in a detail not shown here. Equal entries are not always repeated.",
  "data": [
    {"smiles": "NC(=O)CNCCCc1cc(Cl)ccc1Oc1cc(F)c(S(=O)(=O)Nc2cscn2)cc1Cl", "note": "[Compound 49, 2-((3-(5-chloro-2-(2-chloro-5-fluoro-4-(N-(thiazol-4-yl)sulfamoyl)phenoxy)phenyl)propyl)amino)acetamide]", "values": [
      {"measurement": "IC50", "setting": "hNaV1.7", "value": "0.1 to 0.5 µM and 0.5 to 1 µM"},
      {"measurement": "effect in the tactile allodynia test", "setting": "[1]", "value": "no significant effect"},
      {"measurement": "food intake", "setting": "[2]; diabetic rats, 60 mg/kg/day for 9 days, compared to vehicle control group, continues through week 52 (FIG. 1)", "value": "significantly reduced"},
      {"measurement": "glucose level", "setting": "[2]; diabetic rats, 60 mg/kg/day for 9 days, compared to vehicle control group, continues through week 52 (FIG. 2)", "value": "significantly reduced"},
      {"measurement": "water intake", "setting": "[2]; diabetic rats, 60 mg/kg/day for 9 days, compared to vehicle control group, continues through week 52 (FIG. 3)", "value": "significantly reduced"},
      {"measurement": "mechanical pain (paw pressure test)", "setting": "[2]; [3]", "value": "rapid and sustained improvement"},
      {"measurement": "thermal pain (plantar test)", "setting": "[2]; [3]", "value": "rapid and sustained improvement"},
      {"measurement": "tachyphylaxis", "setting": "[2]; diabetic rats, 60 mg/kg/day in drinking water for 9 days, paw pressure and plantar tests", "value": "no tachyphylaxis"},
      {"measurement": "reversal of mechanical allodynia (von Frey test)", "setting": "[2]; diabetic rats, 60 mg/kg/day in drinking water, after 9 days of treatment", "value": "up to 90%"},
      {"measurement": "time allodynia threshold (von Frey test) stayed significantly above the pretreatment level baseline after compound withdrawal", "setting": "[2]; diabetic rats, after 9 days of 60 mg/kg/day", "value": "up to 5 days"},
      {"measurement": "general appearance and/or health", "setting": "[2]; diabetic rats, after treatment with 60 mg/kg/day stopped on day 9", "value": "improvements in general appearance and/or health"},
      {"measurement": "paw pressure test threshold after compound withdrawal", "setting": "[2]; [4]", "value": "returned to the pretreatment baseline"},
      {"measurement": "plantar test threshold after compound withdrawal", "setting": "[2]; [4]", "value": "returned to the pretreatment baseline"}
    ]}
  ]
}
